Measured values as given in patent US11739098B2 (BRISTOL-MYERS SQUIBB COMPANY, priority 2017, dated 2023).

What was measured:
Type in all cases: cell-based
human TLR7 = molecular target: T1, human TLR7 (Homo sapiens, UniProt Q9NYK1); assay: TLR7 inhibition reporter assay (HEK-Blue cells, SEAP reporter, gardiquimod stimulation); settings: HEK-Blue cells overexpressing human TLR7, SEAP reporter, gardiquimod 7.5 μM
T1 construct: host or cells: HEK-Blue cells (HEK293-derived reporter line)
T1 sequence (Q9NYK1 27-1049): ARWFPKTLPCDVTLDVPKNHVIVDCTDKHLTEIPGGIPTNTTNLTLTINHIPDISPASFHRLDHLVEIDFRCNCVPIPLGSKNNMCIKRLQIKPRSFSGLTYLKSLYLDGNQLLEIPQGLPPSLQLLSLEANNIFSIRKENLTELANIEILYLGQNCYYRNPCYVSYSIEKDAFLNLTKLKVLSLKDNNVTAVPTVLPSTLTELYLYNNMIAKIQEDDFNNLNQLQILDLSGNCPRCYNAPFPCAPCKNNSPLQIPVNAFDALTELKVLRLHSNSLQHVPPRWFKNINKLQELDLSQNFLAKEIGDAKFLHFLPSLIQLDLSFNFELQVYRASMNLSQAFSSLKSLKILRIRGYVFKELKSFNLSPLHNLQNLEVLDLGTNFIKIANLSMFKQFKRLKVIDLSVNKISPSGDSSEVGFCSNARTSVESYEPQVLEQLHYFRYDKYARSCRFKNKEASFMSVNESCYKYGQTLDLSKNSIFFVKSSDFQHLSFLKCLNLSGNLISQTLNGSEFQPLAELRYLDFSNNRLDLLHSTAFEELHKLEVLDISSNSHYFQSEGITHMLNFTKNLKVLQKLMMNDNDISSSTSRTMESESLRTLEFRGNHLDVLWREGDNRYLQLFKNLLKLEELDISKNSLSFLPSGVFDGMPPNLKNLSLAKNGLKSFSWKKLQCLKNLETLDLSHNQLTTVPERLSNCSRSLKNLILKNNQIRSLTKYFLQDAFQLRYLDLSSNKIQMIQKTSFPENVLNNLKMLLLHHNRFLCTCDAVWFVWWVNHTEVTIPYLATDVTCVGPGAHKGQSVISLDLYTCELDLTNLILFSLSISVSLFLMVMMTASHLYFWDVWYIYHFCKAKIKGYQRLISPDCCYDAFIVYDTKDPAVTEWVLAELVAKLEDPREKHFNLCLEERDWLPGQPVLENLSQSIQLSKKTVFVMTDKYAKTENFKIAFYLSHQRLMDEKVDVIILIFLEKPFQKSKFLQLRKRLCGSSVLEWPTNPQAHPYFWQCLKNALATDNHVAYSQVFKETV
How it was run: (§1)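 HEK-Blue cells overexpressing the receptor, with NF-κB/AP-1-driven SEAP, were pre-treated 30 min at room temperature with compound (0.05 nM–50 μM), then stimulated with gardiquimod 7.5 μM (TLR7), R848 15.9 μM (TLR8) or ODN2006 5 nM (TLR9). SEAP was read after 22 h at 37 °C as percent inhibition.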

human TLR8 = molecular target: T2, human TLR8 (Homo sapiens, UniProt Q9NR97); assay: TLR8 inhibition reporter assay (HEK-Blue cells, SEAP reporter, R848 stimulation); settings: HEK-Blue cells overexpressing human TLR8, SEAP reporter, R848 15.9 μM
T2 construct: host or cells: HEK-Blue cells (HEK293-derived reporter line)
T2 sequence (Q9NR97 27-1041): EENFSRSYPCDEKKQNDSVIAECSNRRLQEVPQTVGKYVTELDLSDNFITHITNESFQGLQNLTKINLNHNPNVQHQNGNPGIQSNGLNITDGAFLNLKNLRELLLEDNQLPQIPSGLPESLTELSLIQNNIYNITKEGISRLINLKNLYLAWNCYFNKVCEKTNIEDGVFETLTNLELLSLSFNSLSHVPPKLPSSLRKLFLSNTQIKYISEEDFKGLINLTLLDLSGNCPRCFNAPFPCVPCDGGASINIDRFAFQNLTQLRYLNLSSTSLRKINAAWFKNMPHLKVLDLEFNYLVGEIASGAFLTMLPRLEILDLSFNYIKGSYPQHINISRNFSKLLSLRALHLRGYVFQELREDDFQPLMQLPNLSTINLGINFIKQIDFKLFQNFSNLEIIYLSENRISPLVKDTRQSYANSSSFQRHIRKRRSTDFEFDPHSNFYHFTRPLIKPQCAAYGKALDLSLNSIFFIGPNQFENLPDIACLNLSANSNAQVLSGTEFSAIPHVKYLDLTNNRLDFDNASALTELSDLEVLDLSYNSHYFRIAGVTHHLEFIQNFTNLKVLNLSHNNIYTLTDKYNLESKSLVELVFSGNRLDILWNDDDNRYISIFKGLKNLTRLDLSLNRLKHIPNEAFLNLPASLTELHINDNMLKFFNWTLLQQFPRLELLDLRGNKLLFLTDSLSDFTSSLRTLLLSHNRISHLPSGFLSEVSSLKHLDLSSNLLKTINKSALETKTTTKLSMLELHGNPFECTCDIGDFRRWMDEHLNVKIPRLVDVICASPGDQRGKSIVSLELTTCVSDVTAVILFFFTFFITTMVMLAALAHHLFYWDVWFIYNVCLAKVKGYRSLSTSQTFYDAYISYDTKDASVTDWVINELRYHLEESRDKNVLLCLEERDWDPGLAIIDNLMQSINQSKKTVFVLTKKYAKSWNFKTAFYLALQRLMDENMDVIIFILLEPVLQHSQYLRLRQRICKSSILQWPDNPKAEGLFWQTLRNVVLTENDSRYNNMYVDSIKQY
How it was run: as §1

human TLR9 = molecular target: T3, human TLR9 (Homo sapiens, UniProt Q9NR96); assay: TLR9 inhibition reporter assay (HEK-Blue cells, SEAP reporter, ODN2006 stimulation); settings: HEK-Blue cells overexpressing human TLR9, SEAP reporter, ODN2006 5 nM
T3 construct: host or cells: HEK-Blue cells (HEK293-derived reporter line)
T3 sequence (Q9NR96 26-1032): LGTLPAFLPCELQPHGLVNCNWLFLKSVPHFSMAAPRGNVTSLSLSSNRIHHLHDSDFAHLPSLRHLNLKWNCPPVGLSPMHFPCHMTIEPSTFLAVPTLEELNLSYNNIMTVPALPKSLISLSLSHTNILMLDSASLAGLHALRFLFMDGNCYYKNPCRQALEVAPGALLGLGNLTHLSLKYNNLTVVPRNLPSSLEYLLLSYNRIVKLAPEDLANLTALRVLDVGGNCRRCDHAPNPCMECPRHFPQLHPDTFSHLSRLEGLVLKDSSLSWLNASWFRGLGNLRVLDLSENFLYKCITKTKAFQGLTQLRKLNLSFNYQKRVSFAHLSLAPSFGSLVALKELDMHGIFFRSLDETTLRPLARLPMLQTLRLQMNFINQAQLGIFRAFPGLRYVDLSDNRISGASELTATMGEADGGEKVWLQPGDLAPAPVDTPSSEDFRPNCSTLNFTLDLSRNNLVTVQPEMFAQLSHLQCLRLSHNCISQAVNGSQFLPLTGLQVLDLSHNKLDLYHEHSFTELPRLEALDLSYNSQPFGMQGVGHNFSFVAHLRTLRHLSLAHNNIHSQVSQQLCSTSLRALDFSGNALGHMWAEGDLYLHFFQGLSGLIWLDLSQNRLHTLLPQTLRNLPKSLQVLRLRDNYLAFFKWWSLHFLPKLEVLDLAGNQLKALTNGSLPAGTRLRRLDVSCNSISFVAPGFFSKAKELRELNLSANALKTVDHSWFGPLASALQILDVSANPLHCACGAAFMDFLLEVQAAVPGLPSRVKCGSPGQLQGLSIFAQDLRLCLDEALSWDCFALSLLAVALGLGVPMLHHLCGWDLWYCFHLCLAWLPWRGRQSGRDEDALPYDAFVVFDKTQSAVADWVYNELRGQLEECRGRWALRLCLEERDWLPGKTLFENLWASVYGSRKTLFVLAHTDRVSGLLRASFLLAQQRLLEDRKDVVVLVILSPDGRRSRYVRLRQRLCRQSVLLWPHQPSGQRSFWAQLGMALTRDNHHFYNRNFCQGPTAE
How it was run: as §1

| Compound | IC50 (human TLR7) | IC50 (human TLR8) | IC50 (human TLR9) |
| --- | --- | --- | --- |
| Cc1cc(-c2[nH]c3ccc(C4CCNCC4)cc3c2C(C)C)cn2c(C(N)=O)cnc12 [Example 261, 6-(3-isopropyl-5-(piperidin-4-yl)-1H-indol-2-yl)-8-methylimidazo[1,2-a]pyridine-3-carboxamide] | < 100 nM | 100 to 1000 nM | 1000 to 50000 nM |
| CC(C)c1c(-c2ccc3c(c2)oc(=O)n3C)[nH]c2ccc(C3CCNCC3)cc12 [Example 89, 6-(3-isopropyl-5-(piperidin-4-yl)-1H-indol-2-yl)-3-methylbenzo[d]oxazol-2(3H)-one] | 100 to 1000 nM | < 100 nM | 100 to 1000 nM |
| CCc1c(-c2ccnc3nn[nH]c23)[nH]c2ccc(C3CCNCC3)cc12 [Example 56, 7-(3-ethyl-5-(piperidin-4-yl)-1H-indol-2-yl)-1H-[1,2,3]triazolo[4,5-b] pyridine] | 1000 to 50000 nM | 1000 to 50000 nM | 1000 to 50000 nM |
| CC(C)c1c(-c2ccn3cnnc3c2)[nH]c2ccc(C3CCN(CC(=O)N(C)C)CC3)cc12 [Example 305, 2-(4-(2-([1,2,4]triazolo[4,3-a]pyridin-7-yl)-3-isopropyl-1H-indol-5-yl)piperidin-1-yl)-N,N-dimethylacetamide] | 100 to 1000 nM | 100 to 1000 nM | 1000 to 50000 nM |
| Cc1cn2c(C)cc(-c3[nH]c4ccc(C5CCN(C(=O)CN(C)C)CC5)cc4c3C(C)C)cc2n1 [Example 499, 2-(dimethylamino)-1-(4-(2-(2,5-dimethylimidazo[1,2-a]pyridin-7-yl)-3-isopropyl-1H-indol-5-yl)piperidin-1-yl)ethan-1-one] | 100 to 1000 nM | 1000 to 50000 nM | 100 to 1000 nM |
| CC(C)c1c(-c2ccnc3[nH]ncc23)[nH]c2ccc(C3CCN(C(=O)CCC(=O)N(C)C)CC3)cc12 [Example 613, 4-(4-(3-isopropyl-2-(1H-pyrazolo[3,4-b]pyridin-4-yl)-1H-indol-5-yl)piperidin-1-yl)-N,N-dimethyl-4-oxobutanamide] | 100 to 1000 nM | 100 to 1000 nM | > 50000 nM |
| CC(C)c1c(-c2ccc3c(O)noc3c2)[nH]c2ccc(C3CCNCC3)cc12 [Example 5, 6-(3-isopropyl-5-(piperidin-4-yl)-1H-indol-2-yl)benzo[d]isoxazol-3-ol] | 100 to 1000 nM | 1000 to 50000 nM | 1000 to 50000 nM |

Results, then the compound that gave them:

| IC50 (human TLR7) | IC50 (human TLR8) | IC50 (human TLR9) | Compound |
| --- | --- | --- | --- |
| < 100 nM | < 100 nM | 1000 to 50000 nM | CC(C)c1c(-c2ccnc3[nH]ncc23)[nH]c2ccc(C3CCN(Cc4ccccn4)CC3)cc12 [Example 866, 4-(3-isopropyl-5-(1-(pyridin-2-ylmethyl)piperidin-4-yl)-1H-indol-2-yl)-1H-pyrazolo[3,4-b]pyridine] |
| < 100 nM | 100 to 1000 nM | 1000 to 50000 nM | Cc1cc2nnnn2cc1-c1[nH]c2ccc(C3CCN(C4COC4)CC3)cc2c1C(C)C [Example 742, 6-(3-isopropyl-5-(1-(oxetan-3-yl)piperidin-4-yl)-1H-indol-2-yl)-7-methyltetrazolo[1,5-a]pyridine] |
| < 100 nM | 100 to 1000 nM | > 50000 nM | Cc1cc(-c2[nH]c3ccc(C4CCN(S(=O)(=O)CCO)CC4)cc3c2C(C)C)cn2nnnc12 [Example 616, 2-((4-(3-isopropyl-2-(8-methyltetrazolo[1,5-a]pyridin-6-yl)-1H-indol-5-yl)piperidin-1-yl)sulfonyl)ethan-1-ol] |
| < 100 nM | < 100 nM | 1000 to 50000 nM | COc1cc(-c2[nH]c3ccc(C4CCN(CC(C)(C)O)CC4)cc3c2C(C)C)nn2ncnc12 [Example 749, 1-(4-(3-isopropyl-2-(8-methoxy-[1,2,4]triazolo[1,5-b]pyridazin-6-yl)-1H-indol-5-yl)piperidin-1-yl)-2-methylpropan-2-ol] |
| 100 to 1000 nM | < 100 nM | 1000 to 50000 nM | CCc1c(-c2ccnc3[nH]ncc23)[nH]c2ccc(C3CCN(C(C)C)CC3)cc12 [Example 957, 4-(3-ethyl-5-(1-isopropylpiperidin-4-yl)-1H-indol-2-yl)-1H-pyrazolo[3,4-b]pyridine] |
| 100 to 1000 nM | < 100 nM | 100 to 1000 nM | CCc1c(-c2ccnc3[nH]ccc23)[nH]c2ccc(C3CCN(C4CCN(CC(C)C)CC4)CC3)cc12 [Example 849, 4-(3-ethyl-5-(1′-isobutyl-[1,4′-bipiperidin]-4-yl)-1H-indol-2-yl)-1H-pyrrolo[2,3-b]pyridine] |
| 100 to 1000 nM | < 100 nM | 1000 to 50000 nM | CCc1c(-c2ccnc3[nH]ncc23)[nH]c2ccc(C3CCN(Cc4coc(C)n4)CC3)cc12 [Example 917, 4-((4-(3-ethyl-2-(1H-pyrazolo[3,4-b]pyridin-4-yl)-1H-indol-5-yl)piperidin-1-yl)methyl)-2-methyloxazole] |
| 100 to 1000 nM | < 100 nM | 1000 to 50000 nM | CCc1c(-c2ccnc3[nH]ccc23)[nH]c2ccc(C3CCN(Cc4cccn4C)CC3)cc12 [Example 871, 4-(3-ethyl-5-(1-((1-methyl-1H-pyrrol-2-yl)methyl)piperidin-4-yl)-1H-indol-2-yl)-1H-pyrrolo[2,3-b]pyridine] |
